{"source": "ChEMBL document CHEMBL3769361", "about": "“Novel squaramides with in vitro liver stage antiplasmodial activity” (Bioorg Med Chem, 2016)", "key": {"Plasmodium falciparum [1]": {"tested_on": "Plasmodium falciparum", "assay": "Antiplasmodial activity against chloroquine-resistant Plasmodium falciparum W2 infected in human erythrocytes after 48 hrs by flow cytometry", "assay_type": "functional, organism-based", "conditions": "W2, 48 h"}, "Plasmodium berghei [2]": {"tested_on": "Plasmodium berghei", "assay": "Potency index, ratio of bulaquine IC50 to compound IC50 for liver stage Plasmodium berghei infected in Huh7 cells", "assay_type": "functional, Huh-7"}, "[3]": {"assay": "Cytotoxicity against human HuH7 cells infected with Plasmodium berghei assessed as cell proliferation at 1 to 10 uM by Alamar blue assay", "assay_type": "cell-based", "conditions": "huh-7, 10 µM"}, "[4]": {"assay": "Cytotoxicity against HEK293T cells assessed as cell viability after 48 hrs by MTT assay", "assay_type": "cell-based", "conditions": "Homo sapiens, HEK-293T"}, "Plasmodium berghei [5]": {"tested_on": "Plasmodium berghei", "assay": "Antiplasmodial activity against liver stage Plasmodium berghei infected in Huh7 cells assessed as inhibition of parasite infection incubated for 1 hr prior to infection measured at 24 hrs by luciferase reporter gene assay", "assay_type": "functional, organism-based", "conditions": "Huh-7, Liver"}, "Plasmodium falciparum [6]": {"tested_on": "Plasmodium falciparum", "assay": "Antiplasmodial activity against chloroquine-resistant Plasmodium falciparum W2 infected in human erythrocytes after 24 hrs by [3H]-hypoxanthine incorporation assay", "assay_type": "functional, organism-based"}}, "data": [{"smiles": "CCCCOc1c(NCCCCCNc2cc(OC)cc3cccnc23)c(=O)c1=O", "values": [{"measurement": "IC50", "setting": "Plasmodium falciparum [1]", "value": "> 10", "unit": "µM"}, {"measurement": "Ratio IC50", "setting": "Plasmodium berghei [2]", "value": 4.3}, {"measurement": "Activity", "setting": "[3]", "value": "Non-toxic"}, {"measurement": "IC50", "setting": "[4]", "value": "> 100", "unit": "µM"}, {"measurement": "IC50", "setting": "Plasmodium berghei [5]", "value": 2.2, "unit": "µM"}]}, {"smiles": "CCOc1c(NCCCC(C)Nc2cc(OC)cc3cccnc23)c(=O)c1=O", "note": "(configuration not stated)", "values": [{"measurement": "IC50", "setting": "Plasmodium falciparum [1]", "value": 7.3, "unit": "µM"}, {"measurement": "Activity", "setting": "[3]", "value": "Non-toxic"}, {"measurement": "IC50", "setting": "[4]", "value": "> 100", "unit": "µM"}]}, {"smiles": "CCCCOc1c(NCCNc2cc(OC)cc3cccnc23)c(=O)c1=O", "values": [{"measurement": "IC50", "setting": "Plasmodium falciparum [1]", "value": 8.5, "unit": "µM"}, {"measurement": "Activity", "setting": "[3]", "value": "Non-toxic"}, {"measurement": "IC50", "setting": "[4]", "value": "> 100", "unit": "µM"}]}, {"smiles": "CCCCNc1c(NCCCC(C)Nc2cc(OC)cc3cccnc23)c(=O)c1=O", "note": "(configuration not stated)", "values": [{"measurement": "IC50", "setting": "Plasmodium falciparum [1]", "value": "> 10", "unit": "µM"}, {"measurement": "Activity", "setting": "[3]", "value": "Non-toxic"}]}, {"smiles": "CCCCOc1c(NCCC(C)Nc2cc(OC)cc3cccnc23)c(=O)c1=O", "note": "(configuration not stated)", "values": [{"measurement": "IC50", "setting": "Plasmodium falciparum [1]", "value": 5.1, "unit": "µM"}, {"measurement": "Activity", "setting": "[3]", "value": "Non-toxic"}, {"measurement": "IC50", "setting": "[4]", "value": "> 100", "unit": "µM"}]}, {"smiles": "COc1cc(NC(C)CCCNc2c(NCCCC(C)Nc3cc(OC)cc4cccnc34)c(=O)c2=O)c2ncccc2c1", "note": "(configuration not stated)", "values": [{"measurement": "Ratio IC50", "setting": "Plasmodium berghei [2]", "value": 4.3}, {"measurement": "IC50", "setting": "Plasmodium berghei [5]", "value": 1.3, "unit": "µM"}]}, {"smiles": "CCCCOc1c(NCCCNc2cc(OC)cc3cccnc23)c(=O)c1=O", "values": [{"measurement": "IC50", "setting": "Plasmodium falciparum [1]", "value": 5.1, "unit": "µM"}, {"measurement": "Ratio IC50", "setting": "Plasmodium berghei [2]", "value": 4.3}, {"measurement": "Activity", "setting": "[3]", "value": "Non-toxic"}, {"measurement": "IC50", "setting": "[4]", "value": "> 100", "unit": "µM"}, {"measurement": "IC50", "setting": "Plasmodium berghei [5]", "value": 1.8, "unit": "µM"}]}, {"smiles": "COc1cc(NC(C)CCCN)c2ncccc2c1", "note": "(configuration not stated) [PRIMAQUINE]", "values": [{"measurement": "IC50", "setting": "Plasmodium berghei [5]", "value": 9.5, "unit": "µM"}]}, {"smiles": "CCCCOc1c(NCCCC(C)Nc2cc(OC)cc3cccnc23)c(=O)c1=O", "note": "(configuration not stated)", "values": [{"measurement": "Ratio IC50", "setting": "Plasmodium berghei [2]", "value": 4.3}, {"measurement": "IC50", "setting": "Plasmodium berghei [5]", "value": 1.3, "unit": "µM"}]}, {"smiles": "CCCCOc1c(Nc2cc(OC)cc3cccnc23)c(=O)c1=O", "values": [{"measurement": "IC50", "setting": "Plasmodium falciparum [1]", "value": "> 10", "unit": "µM"}, {"measurement": "Activity", "setting": "[3]", "value": "Non-toxic"}]}, {"smiles": "COc1cc(NC(C)CCCNc2c(OC)c(=O)c2=O)c2ncccc2c1", "note": "(configuration not stated)", "values": [{"measurement": "IC50", "setting": "Plasmodium falciparum [1]", "value": "> 10", "unit": "µM"}, {"measurement": "Activity", "setting": "[3]", "value": "Non-toxic"}]}, {"smiles": "COc1cc(NC(C)CCCN/C(C)=C2/CCOC2=O)c2ncccc2c1", "note": "(configuration not stated)", "values": [{"measurement": "IC50", "setting": "Plasmodium berghei [5]", "value": 10, "unit": "µM"}, {"measurement": "IC50", "setting": "Plasmodium falciparum [6]", "value": 1.6, "unit": "µM"}]}]}
